# Values quoted from earlier work as cited in patent US20190124976A1, “NICOTINE DOSAGE REGIMEN” (priority 2014, published 2019).
# Conditions: reported to be as low as
structure (smiles),measurement,value
CN1CCCC1c1cccnc1 (stereo not shown) [nicotine],minimal lethal dose,30 mg
